Among the test systems are A549; COLO 205; DLD-1; DU-145; HCC 2998; HCT-15; KM12; M14; MOLT-4; NCI-H23; NCI-H460; PC-3; SK-MEL-28; SK-MEL-2; SK-MEL-5; SK-OV-3; SR; SW-620; UO-31; MDA-N.
What all share (test): growth of human tumour cells (NCI), 48 h

Molecules are shown by their SMILES.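 Dose response: 5 concentrations. Exposure: 48 h. Format: 96-well plates. Endpoint: linear interpolation; highest concentration if not reached. GI50 is the concentration that inhibits growth by half.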 Calls of active or inactive are those of the source. Cut-off read from the data, not from the text of the source: active = GI50 up to about 1.1 µM and inactive = higher.

Turning to `CC(C)(C)NNc1c([N+](=O)[O-])cnn(-c2ccccc2)c1=O`, the GI50 in the experiment with A549 is 15.3 µM (inactive); in the experiment on COLO 205, 4.63 µM (inactive); in the experiment on DLD-1, 4.56 µM (inactive); in the experiment with DU-145, 12.8 µM (inactive); in the experiment on HCC 2998, 7.14 µM (inactive); with HCT-15, 3.95 µM. Further, the GI50 in the experiment with KM12 was 10.4 µM (inactive); in the experiment with M14 it was 2.17 µM (inactive); with MOLT-4, 2.13 µM (inactive); in the experiment on NCI-H23, 4.82 µM (inactive); in the experiment on NCI-H460, 7.36 µM (inactive); in the experiment on PC-3, 1.83 µM (inactive). For the same compound, the GI50 in the experiment on SK-MEL-28 was 2.49 µM (inactive); with SK-MEL-2 it was > 10 µM (inactive); in the experiment with SK-MEL-5, 4.51 µM (inactive); with SK-OV-3 it was 9.02 µM (inactive); in the experiment with SR, 1.58 µM (inactive); with SW-620, 1.76 µM (inactive). Besides, the GI50 in the experiment on UO-31 was 6.12 µM (inactive).
As to `CC(C)(C)C1CCN(C(=O)c2ccccc2)CC1`, the GI50 was 90.6 µM (inactive) in the experiment with A549; > 100 µM (inactive) with COLO 205; > 100 µM (inactive) in the experiment on DLD-1; > 100 µM (inactive) with HCC 2998; 57.5 µM with HCT-15; > 100 µM (inactive) in the experiment on KM12. Moreover, the GI50 in the experiment on M14 was > 100 µM (inactive); in the experiment with MOLT-4, 47.3 µM (inactive); in the experiment with NCI-H23, > 100 µM (inactive); in the experiment on NCI-H460, > 100 µM (inactive); with SK-MEL-2 it was > 100 µM (inactive); in the experiment on SK-MEL-5, 28.8 µM (inactive). Also, the GI50 in the experiment on SK-OV-3 was > 100 µM (inactive); in the experiment on SR it was 64.6 µM (inactive); in the experiment with SW-620, > 100 µM (inactive); in the experiment on UO-31, > 100 µM (inactive).
With `O=C1NC(=O)C(=O)C(c2nc3ccccc3s2)C1=O`, the GI50 is > 100 µM (inactive) in the experiment with A549; > 100 µM (inactive) in the experiment with COLO 205; > 100 µM (inactive) in the experiment on DLD-1; > 100 µM (inactive) in the experiment on HCC 2998; over 100 µM with HCT-15; > 100 µM (inactive) in the experiment on KM12. Also, the GI50 with M14, in the experiment with MOLT-4, with NCI-H23, with NCI-H460, with SK-MEL-28 and in the experiment on SK-MEL-2 was > 100 µM (inactive) each time. The GI50 with SK-MEL-5, with SK-OV-3, with SR, with SW-620 and with UO-31 was > 100 µM (inactive) in each case.
For `NC(=O)OCC(COc1ccc(Cl)cc1)OC(=O)c1ccccc1Cl` (centres undefined), the GI50 in the experiment on A549 was 27.8 µM (inactive); with COLO 205, 17.5 µM (inactive); in the experiment on DLD-1, 18.5 µM (inactive); with HCC 2998, 23.8 µM (inactive); in the experiment on HCT-15, 16.4 µM; in the experiment on KM12, 21.6 µM (inactive). In addition, the GI50 is 18.7 µM (inactive) in the experiment with M14; 21 µM (inactive) with MOLT-4; 20.5 µM (inactive) in the experiment with NCI-H23; 16.8 µM (inactive) in the experiment with NCI-H460; 18.6 µM (inactive) with SK-MEL-28; 17.3 µM (inactive) in the experiment with SK-MEL-2. The GI50 in the experiment on SK-MEL-5 was 19.1 µM (inactive); in the experiment with SK-OV-3, > 100 µM (inactive); in the experiment with SR, 25.6 µM (inactive); in the experiment on SW-620, 19 µM (inactive); in the experiment on UO-31, 22.3 µM (inactive).
Take `O=P(NC12CC3CC(CC(C3)C1)C2)(N1CC1)N1CC1`: the GI50 in the experiment on A549 was 26.5 µM (inactive); in the experiment with COLO 205, > 100 µM (inactive); in the experiment on DLD-1 it was 80.5 µM (inactive); in the experiment with DU-145, 6.31 µM (inactive); in the experiment with HCC 2998 it was > 100 µM (inactive); with HCT-15, over 68.5 µM. The GI50 was > 100 µM (inactive) in the experiment on KM12; 37.1 µM (inactive) with M14; > 100 µM (inactive) in the experiment with MDA-N; 3.3 µM (inactive) in the experiment with MOLT-4; 6.05 µM (inactive) with NCI-H23; 2.46 µM (inactive) in the experiment with NCI-H460. Also, the GI50 is > 100 µM (inactive) in the experiment on PC-3; > 100 µM (inactive) in the experiment with SK-MEL-28; > 100 µM (inactive) in the experiment on SK-MEL-2; 34.9 µM (inactive) with SK-MEL-5; > 55.5 µM (inactive) in the experiment with SK-OV-3; 2.05 µM (inactive) in the experiment with SR. Moreover, the figures for the GI50 in the experiment with SW-620 and in the experiment on UO-31 were > 86.5 µM (inactive) and 30.5 µM (inactive), respectively.
As to `Cc1nc(-n2nc(-c3ccccc3)cc2-c2ccccc2)sc1C(=O)/C=C/c1ccc([N+](=O)[O-])cc1`, the GI50 in the experiment on A549 is > 59.7 µM (inactive); in the experiment with COLO 205, 24.4 µM (inactive); in the experiment with DLD-1, 15.3 µM (inactive); in the experiment on DU-145 it was 21.8 µM (inactive); with HCC 2998, 16.2 µM (inactive); in the experiment with HCT-15, 14 µM. Besides, the GI50 in the experiment on KM12 was 9.29 µM (inactive); in the experiment on M14 it was 27.6 µM (inactive); in the experiment on MDA-N, 19.2 µM (inactive); in the experiment with MOLT-4 it was 10.9 µM (inactive); with NCI-H23, 18.4 µM (inactive); in the experiment with NCI-H460, 25.2 µM (inactive). The GI50 is 17.2 µM (inactive) with PC-3; 28.7 µM (inactive) in the experiment with SK-MEL-28; 43.1 µM (inactive) in the experiment with SK-MEL-2; 16.6 µM (inactive) in the experiment with SK-MEL-5; > 65.8 µM (inactive) with SK-OV-3; 2.86 µM (inactive) with SR. Besides, the GI50 in the experiment with SW-620 is 21.4 µM (inactive); in the experiment with UO-31, 14 µM (inactive).
Turning to `O=C(CC(=O)c1cccc([N+](=O)[O-])c1)C(=O)Nc1nc([N+](=O)[O-])cs1`, the GI50 in the experiment with A549 was > 100 µM (inactive); in the experiment with COLO 205, > 100 µM (inactive); with DLD-1, > 100 µM (inactive); with HCC 2998 it was > 100 µM (inactive); in the experiment with HCT-15, 79.6 µM; in the experiment with KM12, > 100 µM (inactive). The GI50 with M14, in the experiment on MOLT-4, with NCI-H23, in the experiment on NCI-H460, in the experiment on SK-MEL-28 and in the experiment with SK-MEL-2 was > 100 µM (inactive) each time. Moreover, the GI50 was > 100 µM (inactive) in the experiment on SK-MEL-5; > 100 µM (inactive) with SK-OV-3; 83 µM (inactive) in the experiment with SR; > 100 µM (inactive) in the experiment with SW-620; > 100 µM (inactive) in the experiment on UO-31.
`[O-][S+]1Nc2c(Cl)cc(Cl)c(Cl)c2S1` (centres undefined): the GI50 in the experiment with A549 is > 100 µM (inactive); in the experiment with COLO 205, > 100 µM (inactive); in the experiment on DLD-1 it was 95.7 µM (inactive); with HCC 2998, > 100 µM (inactive); with HCT-15 it was 44.1 µM; in the experiment on KM12 it was > 100 µM (inactive). The GI50 was > 100 µM (inactive) in the experiment with M14; 34.7 µM (inactive) with MOLT-4; > 100 µM (inactive) in the experiment with NCI-H23; > 100 µM (inactive) in the experiment on NCI-H460; > 100 µM (inactive) in the experiment on SK-MEL-28; > 100 µM (inactive) in the experiment with SK-MEL-2. In addition, the GI50 in the experiment with SK-MEL-5 was 70.6 µM (inactive); in the experiment on SK-OV-3, > 100 µM (inactive); in the experiment on SR it was 43.1 µM (inactive); in the experiment with SW-620, 5.62 µM (inactive); with UO-31, 86.9 µM (inactive).
As for `O=C(O)CCC1c2[nH]c3ccccc3c2CCN1Cc1ccccc1` (centres undefined), the GI50 was > 100 µM (inactive) in the experiment with A549; > 100 µM (inactive) in the experiment with COLO 205; > 100 µM (inactive) in the experiment with DLD-1; > 100 µM (inactive) in the experiment on HCC 2998; over 100 µM in the experiment on HCT-15; > 100 µM (inactive) in the experiment on KM12. Also, the GI50 in the experiment with M14, in the experiment with MOLT-4, in the experiment with NCI-H23, in the experiment with NCI-H460, with SK-MEL-28 and in the experiment with SK-MEL-2 was > 100 µM (inactive) each time. For the same compound, the GI50 with SK-MEL-5, with SK-OV-3, with SR, in the experiment with SW-620 and with UO-31 was > 100 µM (inactive) in each case.
As for `O=C1/C(=C/c2ccccc2)CNC/C1=C\c1ccccc1`, the GI50 in the experiment with A549 is 2.28 µM (inactive); with COLO 205, 1.58 µM (inactive); in the experiment with DLD-1 it was 0.329 µM (active); with HCC 2998, 1.87 µM (inactive); with HCT-15, 0.612 µM; in the experiment on KM12, 0.962 µM (active). Further, the GI50 is 1.81 µM (inactive) with M14; 0.429 µM (active) in the experiment with MOLT-4; 1.83 µM (inactive) in the experiment on NCI-H23; 1.36 µM (inactive) with NCI-H460; 1.92 µM (inactive) in the experiment with SK-MEL-28; 3.21 µM (inactive) in the experiment on SK-MEL-2. Further, the GI50 with SK-MEL-5 is 1.91 µM (inactive); with SK-OV-3 it was 2.22 µM (inactive); in the experiment on SR it was 0.659 µM (active); in the experiment on SW-620, 0.441 µM (active); with UO-31, 2.02 µM (inactive).
As to `CC(C)(C)[C@H]1CC[C@@](O)(c2ccccc2)CC1.CC(C)(C)[C@H]1CC[C@](O)(c2ccccc2)CC1`, the GI50 with A549 is 26 µM (inactive); in the experiment on COLO 205 it was 17.7 µM (inactive); in the experiment with DLD-1 it was 25.4 µM (inactive); with HCC 2998, 26.5 µM (inactive); with HCT-15, 23.9 µM; in the experiment on KM12, 22.8 µM (inactive). The GI50 in the experiment on M14 was 18.2 µM (inactive); in the experiment with MOLT-4 it was 15.6 µM (inactive); in the experiment on NCI-H23 it was 30.1 µM (inactive); with NCI-H460, 27 µM (inactive); in the experiment with SK-MEL-28 it was 22.5 µM (inactive); in the experiment with SK-MEL-2, 14.7 µM (inactive). Also, the GI50 in the experiment on SK-MEL-5 is 14.8 µM (inactive); in the experiment on SK-OV-3 it was 72.8 µM (inactive); in the experiment on SR, 15.2 µM (inactive); in the experiment on SW-620 it was 3.74 µM (inactive); in the experiment with UO-31, 31.5 µM (inactive).

For the origin of these results see ChEMBL document CHEMBL1201862, “PubChem BioAssay data set” (2004).
